In patent US9328106B2, “Cyclic ether pyrazol-4-yl-heterocyclyl-carboxamide compounds and methods of use” (Genentech, Inc., priority 2012, dated 2016):
pEC50, pIC50, pKi: −log10 of the molar value.

Experiments:
[1] = system: BaF3 PIM1 cells; experiment: In vitro cell proliferation, BaF3 transfected with PIM1; assay type: cell-based, murine; settings: Mus musculus, BaF3, read-out: Prolif BaF3 PIM1 (IC50), BaF3 PIM1 cells, incubated overnight, CELL TITER GLO;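 note: murine IL-3-dependent pro-B BaF3 cells transfected with PIM1, compound exposure overnight at 37 °C under 5% CO2, viability read as luminescence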
Experimental: BaF3 parental line was obtained from the DSMZ repository. […] Media for BaF3 parental line contained RPMI, 10% FBS, 2 mM L-Glutamine, 2 ng/mL mIL-3. Media for BaF3 PIM1 & 2 lines contained RPMI, 10% FBS, 2 mM L-Glutamine, 250 μg/mL. Media for MM1.S (multiple myeloma cells) line contained RPMI, 10% FBS, 2 mM L-Glutamine.
BaF3, a murine interleukin-3 dependent pro-B cell line, parental cells, BaF3 PIM1 cells, BaF3 PIM2 cells, and MM1.S (multiple myeloma) cells were seeded at 2 k/well, 5 k/well, 5 k/well, and 10 k/well respectively, in a 384-well plate, at 45 μL/well. Test compound was added at 5 μL/well. BaF3 cells (parental and transfected) were incubated overnight, while MM1.S cells were incubated for 72 hours at 37° C., 5% CO2. CELL TITER GLO® Reagent (Promega) was added at 50 μL/well, the plates were incubated for 30 minutes, and their luminescence read on an HT Analyst. IC50/EC50 values for the test compound were calculated.

[2] = system: MM1.S (multiple myeloma) cells; experiment: In vitro cell proliferation, MM1.S multiple myeloma cells; assay type: cell-based; settings: Homo sapiens, MM1.S, 72 h, MM1.S cells, 72 hours, CELL TITER GLO; read-out: Prolif MM1S ATP (EC50);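 note: cells cultured in RPMI with 10% FBS and 2 mM L-Glutamine, seeded in 384-well plates, exposed to compound, cell viability measured by luminescence after CellTiter-Glo addition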
[3] = molecular target: PIM1 (Homo sapiens (Human), UniProt P11309); experiment: biochemical; assay type: biochemical; settings: 20 pM PIM1, 1 μM FAM-peptide, 10 μM ATP, 90 minutes at room temperature; read-out: PIM1 LC3K (KI)
[4] = system: BaF3 parental cells; experiment: In vitro cell proliferation, BaF3 parental line + IL3; assay type: cell-based, murine; settings: Mus musculus, BaF3, BaF3 parental, mIL-3, incubated overnight, CELL TITER GLO; read-out: Prolif BaF3 IL3 (IC50);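 note: BaF3 parental cells are murine IL-3 dependent pro-B cells grown with 2 ng/mL mIL-3, 384-well format, viability read by luminescence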

Chain of PIM1 (P11309 whole entry): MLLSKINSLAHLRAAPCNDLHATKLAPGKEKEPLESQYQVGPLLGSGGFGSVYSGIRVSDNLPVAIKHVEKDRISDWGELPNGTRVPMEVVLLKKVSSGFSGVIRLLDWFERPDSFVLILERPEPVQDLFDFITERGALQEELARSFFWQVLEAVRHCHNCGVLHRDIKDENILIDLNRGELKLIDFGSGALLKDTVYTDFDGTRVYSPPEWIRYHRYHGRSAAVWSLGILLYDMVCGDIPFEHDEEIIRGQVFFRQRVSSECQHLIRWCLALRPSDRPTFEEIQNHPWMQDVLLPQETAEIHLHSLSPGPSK

| pKi [3] | Structure (SMILES) | also measured |
| --- | --- | --- |
| 10.64 | Cn1ncc(NC(=O)c2csc(-c3n[nH]c4c3CCCC4)n2)c1[C@@H]1CC[C@@H](N)[C@H](F)CO1 [Example 374, N-(5-((2S,5R,6S)-5-amino-6-fluorooxepan-2-yl)-1-methyl-1H-pyrazol-4-yl)-2-(4,5,6,7-tetrahydro-1H-indazol-3-yl)thiazole-4-carboxamide] | pIC50 [4]: 4.88 |
| 9.98 | Cn1ncc(NC(=O)c2csc(-c3cccc(F)c3F)n2)c1[C@@H]1CC[C@@H](N)[C@@H](F)CO1 [Example 245, N-(5-((2S,5R,6R)-5-amino-6-fluorooxepan-2-yl)-1-methyl-1H-pyrazol-4-yl)-2-(2,3-difluorophenyl)thiazole-4-carboxamide] | – |
| 11.10 | C[C@H](O)c1cc(F)c(-c2nc(C(=O)Nc3cnn(C)c3[C@@H]3CC[C@@H](N)[C@H](F)CO3)cs2)c(F)c1 [Example 305, N-(5-((2S,5R,6S)-5-amino-6-fluorooxepan-2-yl)-1-methyl-1H-pyrazol-4-yl)-2-(2,6-difluoro-4-((S)-1-hydroxyethyl)phenyl)thiazole-4-carboxamide] | – |
| 10.09 | CCc1ccc(F)c(-c2nc(C(=O)Nc3cnn(C)c3[C@@H]3CC[C@@H](N)[C@H](F)CO3)cs2)c1 [Example 307, N-(5-((2S,5R,6S)-5-amino-6-fluorooxepan-2-yl)-1-methyl-1H-pyrazol-4-yl)-2-(5-ethyl-2-fluorophenyl)thiazole-4-carboxamide] | – |
| 10.62 | Cn1ncc(NC(=O)c2csc(-c3c(F)cc4c(c3F)OCC4)n2)c1[C@@H]1CC[C@@H](N)[C@H](F)CO1 [Example 391, N-(5-((2S,5R,6S)-5-amino-6-fluorooxepan-2-yl)-1-methyl-1H-pyrazol-4-yl)-2-(5,7-difluoro-2,3-dihydrobenzofuran-6-yl)thiazole-4-carboxamide] | – |
| 9.99 | Cn1ncc(NC(=O)c2csc(-c3ccc[nH]c3=O)n2)c1[C@@H]1CC[C@@H](N)[C@H](F)CO1 [Example 233, N-(5-((2S,5R,6S)-5-amino-6-fluorooxepan-2-yl)-1-methyl-1H-pyrazol-4-yl)-2-(2-oxo-1,2-dihydropyridin-3-yl)thiazole-4-carboxamide] | – |
| 9.11 | Cn1ncc(NC(=O)c2csc(-c3ccccc3C(F)F)n2)c1[C@@H]1CC[C@@H](N)[C@H](F)CO1 [Example 298, N-(5-((2S,5R,6S)-5-amino-6-fluorooxepan-2-yl)-1-methyl-1H-pyrazol-4-yl)-2-(2-(difluoromethyl)phenyl)thiazole-4-carboxamide] | – |
| 9.59 | Cn1ncc(NC(=O)c2csc(-c3cc(F)cc(F)c3F)n2)c1[C@@H]1CC[C@@H](N)[C@H](F)CO1 [Example 236, N-(5-((2S,5R,6S)-5-amino-6-fluorooxepan-2-yl)-1-methyl-1H-pyrazol-4-yl)-2-(2,3,5-trifluorophenyl)thiazole-4-carboxamide] | – |
| 9.80 | Cn1ncc(NC(=O)c2csc(-n3cccn3)n2)c1[C@@H]1CC[C@@H](N)[C@H](F)CO1 [Example 388, N-(5-((2S,5R,6S)-5-amino-6-fluorooxepan-2-yl)-1-methyl-1H-pyrazol-4-yl)-2-(1H-pyrazol-1-yl)thiazole-4-carboxamide] | – |
| 10.07 | Cn1ncc(NC(=O)c2csc(-n3ncc4ccccc43)n2)c1[C@@H]1CC[C@@H](N)[C@H](F)CO1 [Example 395, N-(5-((2S,5R,6S)-5-amino-6-fluorooxepan-2-yl)-1-methyl-1H-pyrazol-4-yl)-2-(1H-indazol-1-yl)thiazole-4-carboxamide] | – |
| 10.62 | Cc1ccc(F)c(-c2nc(C(=O)Nc3cnn(C)c3[C@@H]3CC[C@@H](N)[C@H](F)CO3)c(N)s2)c1 [Example 292, 5-amino-N-(5-((2S,5R,6S)-5-amino-6-fluorooxepan-2-yl)-1-methyl-1H-pyrazol-4-yl)-2-(2-fluoro-5-methylphenyl)thiazole-4-carboxamide] | – |
| 11.40 | Cc1cccnc1-c1nc(C(=O)Nc2cnn(C)c2[C@@H]2CC[C@@H](N)[C@H](F)CO2)c(N)s1 [Example 398, 5-amino-N-[5-[(2S,5R,6S)-5-amino-6-fluoro-oxepan-2-yl]-1-methyl-pyrazol-4-yl]-2-(3-methyl-2-pyridyl)thiazole-4-carboxamide] | – |

Further lines, the molecule ahead of its results:

| Structure (SMILES) | pKi [3] | also measured |
| --- | --- | --- |
| Cn1ncc(NC(=O)c2nc(-c3c(F)cccc3F)sc2N)c1[C@]12CC[C@H](O1)[C@@H](N)CC2 [Example 115, 5-amino-N-(5-((1S,4S,5S)-4-amino-8-oxabicyclo[3.2.1]octan-1-yl)-1-methyl-1H-pyrazol-4-yl)-2-(2,6-difluorophenyl)thiazole-4-carboxamide] | – | pIC50 [1]: 7.72 |
| Cn1ncc(NC(=O)c2nc(-c3c(F)cccc3F)sc2N)c1[C@@]12CC[C@H](N)[C@@H](CC1)O2 [Example 117, 5-amino-N-(5-((1R,4S,5R)-4-amino-8-oxabicyclo[3.2.1]octan-1-yl)-1-methyl-1H-pyrazol-4-yl)-2-(2,6-difluorophenyl)thiazole-4-carboxamide] | – | pEC50 [2]: 6.91; pIC50 [1]: 7.51 |
| Cn1ncc(NC(=O)c2ccc(F)c(-c3c(F)cc(OCCO)cc3F)n2)c1[C@@H]1CC[C@@H](N)[C@H](F)CO1 [Example 209, N-(5-((2S,5R,6S)-5-Amino-6-fluorooxepan-2-yl)-1-methyl-1H-pyrazol-4-yl)-6-(2,6-difluoro-4-(2-hydroxyethoxy)phenyl)-5-fluoropicolinamide] | 10.80 | – |
| Cn1ncc(NC(=O)c2nc(-c3c(F)cccc3F)sc2N)c1[C@H]1CC[C@H](N)[C@@H](F)CO1 [Example 176, 5-Amino-N-[5-[(2R,5S,6R)-5-amino-6-fluoro-oxepan-2-yl]-1-methyl-pyrazol-4-yl]-2-(2,6-difluorophenyl)thiazole-4-carboxamide] | 9.23 | – |
| Cn1ncc(NC(=O)c2nc(-c3c(F)cccc3F)sc2N)c1C1CC(F)(F)CC(N)CO1 (stereo not drawn) [Example 122, 5-amino-N-[5-(6-amino-4,4-difluoro-oxepan-2-yl)-1-methyl-pyrazol-4-yl]-2-(2,6-difluorophenyl)thiazole-4-carboxamide] | 10.85 | – |
| COC1(c2c(NC(=O)c3nc(-c4ncccc4F)sc3N)cnn2C)CCCCO1 (stereo not drawn) [Example 105, 5-amino-2-(3-fluoro-2-pyridyl)-N-[5-(2-methoxytetrahydropyran-2-yl)-1-methyl-pyrazol-4-yl]thiazole-4-carboxamide] | 9.93 | – |
| COC(c1cc(F)c(-c2nc(C(=O)Nc3cnn(C)c3[C@@H]3CC[C@@H](N)[C@H](F)CO3)ccc2F)c(F)c1)C1CC1 (stereo partly drawn) [Example 213, N-(5-((2S,5R,6S)-5-amino-6-fluorooxepan-2-yl)-1-methyl-1H-pyrazol-4-yl)-6-(4-(cyclopropyl(methoxy)methyl)-2,6-difluorophenyl)-5-fluoropicolinamide] | 10.11 | – |
| Cn1ncc(NC(=O)c2ccc(F)c(-c3cc(F)ccc3F)n2)c1[C@@H]1CC[C@@H](N)[C@H](F)CO1 [Example 222, N-(5-((2S,5R,6S)-5-amino-6-fluorooxepan-2-yl)-1-methyl-1H-pyrazol-4-yl)-6-(2,5-difluorophenyl)-5-fluoropicolinamide] | 9.79 | – |
| Cn1ncc(NC(=O)c2nc(-c3c(F)cccc3F)sc2N)c1[C@H]1CC(F)[C@@H](N)CCO1 (stereo partly drawn) [Example 151, 5-Amino-N-[5-[(2R,5S)-5-amino-4-fluoro-oxepan-2-yl]-1-methyl-pyrazol-4-yl]-2-(2,6-difluorophenyl)thiazole-4-carboxamide] | 10.17 | – |
| Cn1ncc(NC(=O)c2nc(-c3ccccc3OC(F)(F)F)sc2N)c1[C@@H]1CC[C@@H](N)[C@H](F)CO1 [Example 157, 5-amino-N-(5-((2S,5R,6S)-5-amino-6-fluorooxepan-2-yl)-1-methyl-1H-pyrazol-4-yl)-2-(2-(trifluoromethoxy)phenyl)thiazole-4-carboxamide] | 9.02 | – |
| CC[C@]1(CO)CO[C@@H](c2c(NC(=O)c3nc(-c4c(F)cccc4F)sc3N)cnn2C)OC1 [Example 163, 5-Amino-2-(2,6-difluorophenyl)-N-[5-[5-ethyl-5-(hydroxymethyl)-1,3-dioxan-2-yl]-1-methyl-pyrazol-4-yl]thiazole-4-carboxamide] | 8.90 | – |
| CO[C@@H]1C[C@@H](c2c(NC(=O)c3nc(-c4c(F)cccc4F)sc3N)cnn2C)OCC[C@H]1N [Example 136, 5-amino-N-(5-((2S,4R,5R)-5-amino-4-methoxyoxepan-2-yl)-1-methyl-1H-pyrazol-4-yl)-2-(2,6-difluorophenyl)thiazole-4-carboxamide] | 10.24 | – |
| C[C@@H]1CC(O)CC[C@H](c2c(NC(=O)c3nc(-c4c(F)cccc4F)sc3N)cnn2C)O1 (stereo partly drawn) [Example 108, 5-amino-2-(2,6-difluorophenyl)-N-(5-((2R,7R)-5-hydroxy-7-methyloxepan-2-yl)-1-methyl-1H-pyrazol-4-yl)thiazole-4-carboxamide] | 10.31 | – |
| Cn1ncc(NC(=O)c2nc(-c3c(F)cccc3F)sc2N)c1[C@H]1CC[C@H](F)[C@@H](N)CO1 [Example 153, 5-Amino-N-[5-[(2R,5S,6S)-6-amino-5-fluoro-oxepan-2-yl]-1-methyl-pyrazol-4-yl]-2-(2,6-difluorophenyl)thiazole-4-carboxamide] | 9.94 | – |
| Cn1ncc(NC(=O)c2ccc(F)c(-c3cccc(F)c3Cl)n2)c1[C@@H]1CC[C@@H](N)[C@H](F)CO1 [Example 227, N-(5-((2S,5R,6S)-5-amino-6-fluorooxepan-2-yl)-1-methyl-1H-pyrazol-4-yl)-6-(2-chloro-3-fluorophenyl)-5-fluoropicolinamide] | 9.24 | – |
| Cn1ncc(NC(=O)c2nc(-c3c(F)cccc3F)sc2N)c1[C@@H]1C[C@@H](N)[C@@H](F)CCO1 (stereo in doubt) [Example 170, 5-Amino-N-[5-[4-amino-5-fluoro-oxepan-2-yl]-1-methyl-pyrazol-4-yl]-2-(2,6-difluorophenyl)thiazole-4-carboxamide] | 9.90 | – |
